Laboratory results published in the NIST ThermoML archive (doi:10.1016/j.fluid.2013.03.008).
± gives the expanded uncertainty stated by the source.

Conditions: Liquid, Closed cell (Static) method

CCCCCCCCCCCCCC(=O)OCC [ethyl tetradecanoate]
Conditions | vapor or sublimation pressure [kPa]
392.17 K | 0.1 ± 0.01
398.52 K | 0.15 ± 0.01
404.27 K | 0.2 ± 0.01
410.95 K | 0.3 ± 0.01
416.1 K | 0.4 ± 0.01
419.65 K | 0.5 ± 0.01
425.69 K | 0.65 ± 0.02
430.55 K | 0.8 ± 0.02
434.91 K | 1 ± 0.02
439.1 K | 1.2 ± 0.03
443.82 K | 1.5 ± 0.03

CCCCCCCCCCCCCCCC(=O)OCC [ethyl hexadecanoate]
Conditions | vapor or sublimation pressure [kPa]
412.63 K | 0.1 ± 0.01
419.36 K | 0.15 ± 0.01
425.07 K | 0.2 ± 0.01
433.31 K | 0.3 ± 0.01
438.71 K | 0.4 ± 0.01
442.68 K | 0.5 ± 0.01
448.35 K | 0.65 ± 0.02
452.99 K | 0.8 ± 0.02
457.98 K | 1 ± 0.02
462.64 K | 1.2 ± 0.03
468.07 K | 1.5 ± 0.03
